Experimental data: patent US20090298878A1, “OXIME COMPOUNDS AND THE USE THEREOF” (priority 2006, published 2009)
Where a name gives a salt, the structure may show the parent alone.

Columns and labels:
[1] = target: T1, N-type calcium channel (NTCC) (Homo sapiens, UniProt Q00975); assay: FLIPR calcium mobilization assay for N-type calcium channel (differentiated IMR32 cells); format: cell-based; settings: calcium mobilization in vitro assay, N-type calcium channel blockers
T1 construct: host or cells: IMR32 cells differentiated with dibutyryl cAMP and bromodeoxyuridine
T1 sequence (Q00975 whole entry): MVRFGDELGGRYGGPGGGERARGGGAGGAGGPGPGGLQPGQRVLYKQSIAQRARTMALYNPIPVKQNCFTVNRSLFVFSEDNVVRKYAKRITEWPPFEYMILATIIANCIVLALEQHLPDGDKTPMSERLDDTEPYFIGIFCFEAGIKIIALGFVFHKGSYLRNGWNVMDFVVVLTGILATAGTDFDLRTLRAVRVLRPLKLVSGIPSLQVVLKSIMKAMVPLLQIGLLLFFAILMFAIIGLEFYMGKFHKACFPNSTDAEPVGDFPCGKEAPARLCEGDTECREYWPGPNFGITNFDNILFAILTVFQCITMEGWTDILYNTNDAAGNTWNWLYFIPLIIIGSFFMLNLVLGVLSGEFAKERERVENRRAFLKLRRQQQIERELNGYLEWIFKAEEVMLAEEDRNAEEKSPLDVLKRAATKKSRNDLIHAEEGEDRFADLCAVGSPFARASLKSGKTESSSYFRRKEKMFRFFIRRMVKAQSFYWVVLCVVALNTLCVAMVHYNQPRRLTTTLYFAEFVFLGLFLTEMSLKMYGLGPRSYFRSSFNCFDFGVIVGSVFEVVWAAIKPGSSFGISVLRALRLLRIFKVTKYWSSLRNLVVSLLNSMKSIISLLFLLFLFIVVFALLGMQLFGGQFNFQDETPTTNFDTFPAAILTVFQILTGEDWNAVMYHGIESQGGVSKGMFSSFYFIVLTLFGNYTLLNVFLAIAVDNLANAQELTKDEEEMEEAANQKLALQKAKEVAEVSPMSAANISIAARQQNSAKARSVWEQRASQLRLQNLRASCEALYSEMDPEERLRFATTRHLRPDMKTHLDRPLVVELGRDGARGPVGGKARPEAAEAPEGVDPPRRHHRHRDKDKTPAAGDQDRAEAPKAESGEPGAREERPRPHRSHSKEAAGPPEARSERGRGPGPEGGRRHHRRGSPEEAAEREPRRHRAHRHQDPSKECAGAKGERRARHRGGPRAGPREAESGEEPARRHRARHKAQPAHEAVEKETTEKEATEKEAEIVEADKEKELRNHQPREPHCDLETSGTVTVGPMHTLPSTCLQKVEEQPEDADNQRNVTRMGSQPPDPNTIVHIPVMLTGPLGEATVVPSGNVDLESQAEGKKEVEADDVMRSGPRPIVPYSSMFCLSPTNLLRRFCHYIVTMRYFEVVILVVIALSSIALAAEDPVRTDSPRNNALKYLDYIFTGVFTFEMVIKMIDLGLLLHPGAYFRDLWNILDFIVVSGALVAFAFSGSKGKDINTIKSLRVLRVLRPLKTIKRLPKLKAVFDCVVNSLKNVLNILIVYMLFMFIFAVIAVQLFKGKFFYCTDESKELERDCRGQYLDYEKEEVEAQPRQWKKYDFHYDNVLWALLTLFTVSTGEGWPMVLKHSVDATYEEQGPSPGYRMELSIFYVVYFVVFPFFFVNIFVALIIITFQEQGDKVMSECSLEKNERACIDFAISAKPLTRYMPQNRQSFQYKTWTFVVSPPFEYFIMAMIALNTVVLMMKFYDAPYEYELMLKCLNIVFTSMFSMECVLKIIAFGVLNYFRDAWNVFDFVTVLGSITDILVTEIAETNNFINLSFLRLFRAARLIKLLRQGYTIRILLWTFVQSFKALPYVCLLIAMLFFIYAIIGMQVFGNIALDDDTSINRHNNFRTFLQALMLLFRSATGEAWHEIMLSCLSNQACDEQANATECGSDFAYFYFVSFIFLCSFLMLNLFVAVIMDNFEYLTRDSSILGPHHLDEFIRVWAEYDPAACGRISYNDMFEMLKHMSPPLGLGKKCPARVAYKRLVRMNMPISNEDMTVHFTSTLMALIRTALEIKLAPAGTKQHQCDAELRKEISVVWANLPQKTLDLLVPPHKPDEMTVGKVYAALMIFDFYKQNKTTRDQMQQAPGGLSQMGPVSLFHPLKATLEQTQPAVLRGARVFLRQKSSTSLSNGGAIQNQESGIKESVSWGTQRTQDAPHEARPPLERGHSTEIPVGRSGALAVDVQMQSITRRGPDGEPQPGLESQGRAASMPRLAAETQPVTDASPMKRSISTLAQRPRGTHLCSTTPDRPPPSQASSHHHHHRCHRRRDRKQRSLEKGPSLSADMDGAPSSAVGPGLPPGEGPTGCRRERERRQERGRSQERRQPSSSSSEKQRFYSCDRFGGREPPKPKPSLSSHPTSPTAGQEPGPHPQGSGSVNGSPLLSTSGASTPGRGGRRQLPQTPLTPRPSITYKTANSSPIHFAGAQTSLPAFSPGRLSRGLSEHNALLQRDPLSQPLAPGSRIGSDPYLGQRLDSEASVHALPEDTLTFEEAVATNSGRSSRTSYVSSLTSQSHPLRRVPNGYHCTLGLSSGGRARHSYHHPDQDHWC
Procedure, shortened: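 Human IMR32 cells differentiated 8 days (1 mM dibutyryl cAMP, 2.5 μM BrdU), pre-stimulated 1 h with 90 mM KCl plus compound (~846 pM–17 μM) and 5 μM nitrendipine, Fluo-4 loaded. FLIPR read basal fluorescence 315 s, then 90 mM KCl agonist added and fluorescence recorded 45 s; non-linear regression.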

[2] = target: T2, L-type calcium channel (LTCC) subunits (α1c, α2δ, and β1) (Rattus norvegicus, UniProt P22002); assay: FLIPR calcium mobilization assay for L-type calcium channel (HEK293 cells expressing recombinant rat LTCC subunits); format: cell-based; settings: calcium mobilization in vitro assay, L-type calcium channel blockers
T2 construct: expressed in transfected cells; pcDNA6.2DEST for α1c, pcDNA3.2DEST for β1, pcDNA3.1-Zeo for α2δ
T2 sequence (P22002 whole entry): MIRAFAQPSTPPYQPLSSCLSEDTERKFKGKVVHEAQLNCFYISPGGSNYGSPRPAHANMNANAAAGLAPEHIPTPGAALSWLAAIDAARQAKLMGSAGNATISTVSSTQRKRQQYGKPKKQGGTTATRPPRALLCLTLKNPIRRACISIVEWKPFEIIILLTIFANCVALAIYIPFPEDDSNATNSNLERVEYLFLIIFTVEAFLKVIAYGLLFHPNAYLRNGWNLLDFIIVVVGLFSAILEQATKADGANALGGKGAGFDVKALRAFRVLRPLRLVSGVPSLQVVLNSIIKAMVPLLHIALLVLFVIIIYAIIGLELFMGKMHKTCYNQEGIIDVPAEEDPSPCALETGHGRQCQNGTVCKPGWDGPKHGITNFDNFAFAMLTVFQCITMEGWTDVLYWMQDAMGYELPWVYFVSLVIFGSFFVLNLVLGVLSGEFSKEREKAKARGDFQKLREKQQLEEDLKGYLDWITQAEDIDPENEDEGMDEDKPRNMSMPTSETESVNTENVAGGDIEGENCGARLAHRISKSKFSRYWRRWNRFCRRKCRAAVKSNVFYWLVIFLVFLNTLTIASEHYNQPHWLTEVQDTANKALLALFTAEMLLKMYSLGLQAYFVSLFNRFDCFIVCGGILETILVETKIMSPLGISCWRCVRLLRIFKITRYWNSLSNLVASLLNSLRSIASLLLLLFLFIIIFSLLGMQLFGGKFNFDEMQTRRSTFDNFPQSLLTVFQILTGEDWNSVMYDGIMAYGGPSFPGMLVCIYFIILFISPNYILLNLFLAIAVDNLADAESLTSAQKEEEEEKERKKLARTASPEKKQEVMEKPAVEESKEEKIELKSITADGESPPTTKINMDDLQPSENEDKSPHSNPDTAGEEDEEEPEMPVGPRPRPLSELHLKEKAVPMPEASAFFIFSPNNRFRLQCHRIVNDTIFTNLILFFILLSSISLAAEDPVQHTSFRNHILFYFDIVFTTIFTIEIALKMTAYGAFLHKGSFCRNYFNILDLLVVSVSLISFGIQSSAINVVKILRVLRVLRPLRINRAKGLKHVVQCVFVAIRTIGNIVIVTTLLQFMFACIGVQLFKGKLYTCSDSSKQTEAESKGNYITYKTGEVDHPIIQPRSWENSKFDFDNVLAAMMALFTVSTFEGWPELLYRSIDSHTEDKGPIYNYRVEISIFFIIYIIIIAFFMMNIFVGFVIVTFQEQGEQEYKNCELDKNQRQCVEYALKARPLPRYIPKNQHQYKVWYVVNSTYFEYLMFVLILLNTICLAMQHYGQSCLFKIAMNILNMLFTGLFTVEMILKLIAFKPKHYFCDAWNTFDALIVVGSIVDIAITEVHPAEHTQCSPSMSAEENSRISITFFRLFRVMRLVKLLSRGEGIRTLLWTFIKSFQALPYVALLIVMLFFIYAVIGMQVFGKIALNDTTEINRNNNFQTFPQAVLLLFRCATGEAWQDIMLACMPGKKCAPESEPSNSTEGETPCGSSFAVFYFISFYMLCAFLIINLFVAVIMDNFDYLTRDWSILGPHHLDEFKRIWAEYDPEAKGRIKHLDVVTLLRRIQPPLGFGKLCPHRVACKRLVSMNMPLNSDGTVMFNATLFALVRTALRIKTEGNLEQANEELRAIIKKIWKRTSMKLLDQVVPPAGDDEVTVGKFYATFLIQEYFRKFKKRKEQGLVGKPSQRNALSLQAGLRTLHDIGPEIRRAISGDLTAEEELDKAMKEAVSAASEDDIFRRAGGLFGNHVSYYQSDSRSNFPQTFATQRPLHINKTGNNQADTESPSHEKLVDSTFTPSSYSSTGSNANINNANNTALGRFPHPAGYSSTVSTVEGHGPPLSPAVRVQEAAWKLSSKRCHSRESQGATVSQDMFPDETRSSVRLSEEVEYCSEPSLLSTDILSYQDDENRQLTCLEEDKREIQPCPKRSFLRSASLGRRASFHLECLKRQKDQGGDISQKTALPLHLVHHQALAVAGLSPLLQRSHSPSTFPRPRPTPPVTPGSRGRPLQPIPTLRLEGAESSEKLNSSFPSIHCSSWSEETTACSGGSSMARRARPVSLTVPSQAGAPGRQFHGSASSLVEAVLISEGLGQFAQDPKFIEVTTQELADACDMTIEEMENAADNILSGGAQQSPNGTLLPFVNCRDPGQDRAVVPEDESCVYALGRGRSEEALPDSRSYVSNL
Protocol: Recombinant human embryonal kidney cells (HEK293, ATCC) stably transfected with either N-type calcium channel (NTCC) subunits (α1b, α2δ, and β3) or L-type calcium channel (LTCC) subunits (α1c, α2δ, and β1) were routinely cultured in growth medium consisting of Dulbecco's Modified Eagles Medium containing 10% FBS, 100 U/mL penicillin, 100 μg/mL streptomycin, 4 mM L-glutamine, 500 μg/mL geneticin (G418), 20 μg/mL Blasticidin S (InVivogen, San Diego, Calif.) and 500 μg/mL zeocin (InVivogen).
FLIPR Calcium Mobilization Assay for L-type Calcium Channel. One day prior to performing this assay, HEK293 cells stably expressing recombinant rat L-type calcium channel (LTCC) subunits (α1c, α2δ, and β1) were trypsinized, then seeded on poly-D-lysine-coated 96-well clear-bottom black plates (Becton Dickinson, Franklin Lakes, N.J.) at 75,000 cells/well. On the day of the assay, the plates were washed with LTCC wash buffer (127 mM NaCl, 2 mM MgCl2, 700 μM NaH2PO4, […], 5 mM NaHCO3, 8 mM HEPES, 10 mM glucose, pH 7.4), then loaded with 0.1 mL of LTCC wash buffer containing Fluo-4 (3 μM final concentration, Molecular Probes, Eugene, Oreg.). After 1 hour, the cells were washed with 0.1 mL LTCC wash buffer and resuspended in 0.05 mL LTCC assay buffer (same composition as LTCC wash buffer). Plates were then transferred to a FLIPR^96 for assay. The FLIPR measured basal Fluo-4 fluorescence for 15 seconds, then added 0.05 mL of each compound tested diluted in LTCC assay buffer at final concentrations ranging from about 846 pM to about 17 μM. Fluo-4 fluorescence was then measured for 5 minutes. 0.1 mL KCl agonist dissolved in LTCC assay buffer was then added to the cells to produce a final concentration of 90 mM KCl, and fluorescence was measured for another 45 seconds. Data were collected over the entire time course and analyzed using Excel, Graph Pad Prism, or an in-house regression analysis software.
Cloning of N- and L-type calcium channel subunit open reading frame cDNAs. Five cDNAs encoding subunits of the rat N- or L-type calcium channels were cloned by PCR amplification in order to reconstitute functional channels in a heterologous system. These were the alpha1b (α1b), beta1 (β1), beta3 (β3), alpha2delta (α2δ), and alpha1c (α1c) subunit cDNAs. The alpha1b subunit cDNA has been described by Dubel et al. in Proc. Natl. Acad. Sci. U.S.A 89: 5058-5062 (1992). The beta1 subunit cDNA has been described by Pragnell et al. in FEBS Lett. 291: 253-258 (1991). The beta3 subunit cDNA has been described by Castellano et al. in J. Biol. Chem. 268: 12359-12366 (1993). The alpha2delta subunit cDNA has been described by Kim et al. in Proc. Natl. Acad. Sci. U.S.A. 89: 3251-3255 (1992). The alpha1c subunit cDNA has been described by Koch et al. in J. Biol. Chem. 265: 17786-17791 (1990).
The 6.5 kb cDNA encoding the L-type calcium channel α1c subunit was cloned by PCR amplification from rat heart cDNA using primers 11 (SEQ ID NO: 11, TABLE 1) and 12 (SEQ ID NO:12, TABLE 1). The PCR fragment was subcloned and fully sequenced on both strands to confirm its identity. A clone matching consensus reference sequence M59786 and rat genomic DNA sequences was recombined into the mammalian expression vector pcDNA6.2DEST. Sequences around the recombinogenic region were sequenced to confirm accurate recombination into the expression vector.
L-type Recombinant Cell Line Development. L-type calcium channel expressing HEK-293 cells were created in two stages. Stage 1 was created as follows. The rat α1c, and β1 cDNA expression constructs (2.5 μg each) were co-transfected into human embryonic kidney (HEK-293) cells by Lipofectamine Plus reagent (Invitrogen), as per manufacturer's instructions. 24 hours later, cells were split in limiting dilution into multiple 96-well plates in selection media containing 20 μg/mL blasticidin and 500 μg/mL geneticin, and incubated for 3 weeks at 37° C., 5% CO2, 95% humidity. […]

IC50 [1] [nM] | IC50 [2] [nM] | Structure (SMILES)
860 | 15200 | CN[C@@H](CC(C)C)C(=O)N1CCC(=NOCc2ccc(Cl)cc2)CC1 [Example 4, 1-((S)-4-Methyl-2-methylaminopentanoyl)piperidin-4-one O-(4-chlorobenzyl)oxime hydrochloride]
690 | 9600 | CC(C)C[C@H](N)C(=O)N1CCC(=NOCc2cccc(C(F)(F)F)c2)CC1 [Example 8, 1-((S)-2-Amino-4-methylpentanoyl)piperidin-4-one O-(3-trifluoromethylbenzyl)oxime hydrochloride]
820 | > 20000 | Fc1ccc(C(CCCN2CCC(=NOCc3cccc(C(F)(F)F)c3)CC2)c2ccc(F)cc2)cc1 [Example 12, 1-[4,4-Bis-(4-fluorophenyl)butyl]piperidin-4-one O-(3-trifluoromethylbenzyl)oxime oxalate]
260 | 6600 | Fc1ccc(C(CCCN2CCC(=NOCc3cccnc3)CC2)c2ccc(F)cc2)cc1 [Example 16, 1-[4,4-Bis-(4-fluorophenyl)butyl]piperidin-4-one O-pyridin-3-ylmethyloxime dioxalate]
760 | 4900 | O=C(CCC(c1ccc(F)cc1)c1ccc(F)cc1)N1CCC(=NOCc2ccncc2)CC1 [Example 19, 1-[4,4-Bis-(4-fluorophenyl)butyryl]piperidin-4-one O-pyridin-4-ylmethyloxime oxalate]
990 | 7200 | CC(C)C[C@H](N)CC(=O)N1CCC(=NOCc2cccc(C(F)(F)F)c2)CC1 [Example 24, 1-((S)-3-Amino-5-methylhexanoyl)piperidin-4-one O-(3-trifluoromethylbenzyl)oxime oxalate]
330 | > 20000 | O=C(CCC(c1ccc(F)cc1)c1ccc(F)cc1)N1CCC(=NOCc2ccc(C(F)(F)F)cc2)CC1 [Example 30, 1-[4,4-Bis-(4-fluorophenyl)butyryl]piperidin-4-one O-(4-trifluoromethylbenzyl)oxime]
430 | > 20000 | CCCCc1ccc(S(=O)(=O)N2CCC(=NOCc3cccc(C(F)(F)F)c3)CC2)cc1 [Example 50, 1-(4-Butyl-benzenesulfonyl)piperidin-4-one O-(3-trifluoromethylbenzyl)oxime]
220 | > 20000 | CCCCc1ccc(S(=O)(=O)N2CCC(=NOCc3cccc(C#N)c3)CC2)cc1 [Example 77, 3-[1-(4-Butylbenzenesulfonyl)piperidin-4-ylideneaminooxymethyl]benzonitrile]
690 | > 20000 | N#Cc1cc(CON=C2CCN(C(c3ccc(F)cc3)c3ccc(F)cc3)CC2)ccc1F [Example 182, 5-((1-(Bis(4-fluorophenyl)methyl)piperidin-4-ylideneaminooxy)methyl)-2-fluorobenzonitrile hydrochloride]
610 | > 20000 | O=S(=O)(c1cccc(C(F)(F)F)c1)N1CCC(=NOCC2CCCCC2)CC1 [Example 277, 1-(3-(Trifluoromethyl)phenylsulfonyl)piperidin-4-one O-cyclohexylmethyl oxime]
160 | > 20000 | O=c1ccc(CON=C2CCN(S(=O)(=O)c3ccc(OC(F)(F)F)cc3)CC2)cn1Cc1ccc(F)cc1 [Example 295, 1-(4-Fluorobenzyl)-5-((1-(4-(trifluoromethoxy)phenylsulfonyl)piperidin-4-ylideneaminooxy)methyl)pyridin-2(1H)-one]
360 | > 20000 | O=S(=O)(c1ccc(OC(F)(F)F)cc1)N1CCC(=NOCc2nc3cc(Cl)cnc3[nH]2)CC1 [Example 308, 1-(4-(Trifluoromethoxy)phenylsulfonyl)piperidin-4-one O-(6-chloro-3H-imidazo[4,5-b]pyridin-2-yl)methyl oxime]
80 | > 20000 | CCCCCC(C)ON=C1CCN(S(=O)(=O)c2cccc(C(F)(F)F)c2)CC1 (stereo not shown) [Example 369, 1-(3-(Trifluoromethyl)phenylsulfonyl)piperidin-4-one O-heptan-2-yl oxime]
